Calls of active or inactive are those of the source. For most assays here, no stated cut-off is given here; in the data, actives have a measured IC50 and inactives only a lower limit.
How the values were obtained:
Type in all cases: functional
[1] = target: T1, Sentrin-specific protease 8 (Homo sapiens, UniProt Q96LD8); experiment: inhibition of human SENP8 cleavage activity – biochemical, luminescence, SAR follow-up (AID 504501)
T1 sequence (Q96LD8 whole entry): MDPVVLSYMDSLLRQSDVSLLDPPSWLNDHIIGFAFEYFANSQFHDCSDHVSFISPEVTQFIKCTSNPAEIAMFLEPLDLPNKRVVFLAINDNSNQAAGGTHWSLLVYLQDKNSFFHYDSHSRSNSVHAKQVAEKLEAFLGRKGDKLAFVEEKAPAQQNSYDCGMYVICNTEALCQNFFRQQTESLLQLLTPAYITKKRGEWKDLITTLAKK

[2] = target: T2, Sentrin-specific protease 6 (Homo sapiens, UniProt Q9GZR1); experiment: SAR Analysis of small molecule inhibitors of Sentrin-specific protease 6 (SENP6) using a Luminescent assay. [Related pubchem assays (depositor defined):AID2582, AID2599]
T2 sequence (Q9GZR1 whole entry): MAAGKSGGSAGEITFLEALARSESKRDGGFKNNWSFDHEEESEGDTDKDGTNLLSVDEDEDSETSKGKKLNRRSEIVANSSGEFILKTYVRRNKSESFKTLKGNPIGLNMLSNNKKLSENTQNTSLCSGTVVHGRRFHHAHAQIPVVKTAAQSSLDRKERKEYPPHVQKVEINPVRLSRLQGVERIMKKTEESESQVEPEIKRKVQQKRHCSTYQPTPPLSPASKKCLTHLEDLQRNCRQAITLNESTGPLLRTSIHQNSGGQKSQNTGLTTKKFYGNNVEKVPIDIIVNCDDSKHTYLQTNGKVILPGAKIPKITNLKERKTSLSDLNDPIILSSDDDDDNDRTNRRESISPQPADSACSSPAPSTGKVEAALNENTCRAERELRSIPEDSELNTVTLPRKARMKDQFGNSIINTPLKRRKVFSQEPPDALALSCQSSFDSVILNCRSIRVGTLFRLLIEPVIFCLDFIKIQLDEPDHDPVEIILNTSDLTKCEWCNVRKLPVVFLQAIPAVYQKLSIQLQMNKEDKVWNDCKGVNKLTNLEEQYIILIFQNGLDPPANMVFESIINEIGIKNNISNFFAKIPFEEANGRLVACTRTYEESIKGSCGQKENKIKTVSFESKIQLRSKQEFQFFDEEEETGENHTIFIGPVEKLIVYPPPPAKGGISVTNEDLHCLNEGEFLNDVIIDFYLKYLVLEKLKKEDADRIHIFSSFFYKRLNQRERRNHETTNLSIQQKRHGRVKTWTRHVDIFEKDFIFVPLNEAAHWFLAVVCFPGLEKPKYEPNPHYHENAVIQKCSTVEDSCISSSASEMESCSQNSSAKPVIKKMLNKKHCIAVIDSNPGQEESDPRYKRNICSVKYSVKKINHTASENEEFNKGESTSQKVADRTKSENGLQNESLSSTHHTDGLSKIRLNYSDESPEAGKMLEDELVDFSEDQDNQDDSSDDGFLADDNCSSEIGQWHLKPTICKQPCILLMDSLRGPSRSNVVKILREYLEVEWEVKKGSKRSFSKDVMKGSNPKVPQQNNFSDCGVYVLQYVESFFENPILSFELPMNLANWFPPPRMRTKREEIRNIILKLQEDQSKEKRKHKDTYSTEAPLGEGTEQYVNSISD

[3] = target: T3, Sentrin-specific protease 7 (Homo sapiens, UniProt Q9BQF6); experiment: inhibition of human SENP7 cleavage activity – biochemical, luminescence, SAR follow-up (AID 504497)
T3 sequence (Q9BQF6 whole entry): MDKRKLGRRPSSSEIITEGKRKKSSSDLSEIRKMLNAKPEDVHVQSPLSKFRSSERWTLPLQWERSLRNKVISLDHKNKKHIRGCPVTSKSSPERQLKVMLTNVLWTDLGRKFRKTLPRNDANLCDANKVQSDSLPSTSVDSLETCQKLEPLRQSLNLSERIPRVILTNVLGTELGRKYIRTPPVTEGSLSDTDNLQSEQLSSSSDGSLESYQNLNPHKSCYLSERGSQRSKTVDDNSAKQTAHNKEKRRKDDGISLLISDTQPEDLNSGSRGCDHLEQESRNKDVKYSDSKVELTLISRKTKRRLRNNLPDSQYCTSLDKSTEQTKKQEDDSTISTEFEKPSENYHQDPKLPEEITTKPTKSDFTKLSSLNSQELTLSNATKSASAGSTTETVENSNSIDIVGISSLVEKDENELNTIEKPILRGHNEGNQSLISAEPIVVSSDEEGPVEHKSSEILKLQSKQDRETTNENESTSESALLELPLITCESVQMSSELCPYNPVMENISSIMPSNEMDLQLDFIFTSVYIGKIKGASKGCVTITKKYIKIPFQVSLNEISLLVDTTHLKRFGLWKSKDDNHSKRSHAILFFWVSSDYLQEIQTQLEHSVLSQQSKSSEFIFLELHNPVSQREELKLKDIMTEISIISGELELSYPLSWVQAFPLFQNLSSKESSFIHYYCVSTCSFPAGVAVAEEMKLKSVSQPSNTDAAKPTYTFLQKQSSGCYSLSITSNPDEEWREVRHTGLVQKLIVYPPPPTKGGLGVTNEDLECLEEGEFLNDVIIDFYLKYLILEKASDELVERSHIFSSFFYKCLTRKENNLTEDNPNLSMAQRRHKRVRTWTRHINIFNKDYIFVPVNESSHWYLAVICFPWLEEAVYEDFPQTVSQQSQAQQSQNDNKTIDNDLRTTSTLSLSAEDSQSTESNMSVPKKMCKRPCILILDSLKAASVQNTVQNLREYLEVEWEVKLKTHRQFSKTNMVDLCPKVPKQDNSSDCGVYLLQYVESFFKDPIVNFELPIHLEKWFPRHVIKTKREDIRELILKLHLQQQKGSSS

[4] = target: T4, Caspase-3 (Homo sapiens, UniProt P42574); experiment: SAR Analysis of small molecule inhibitors of Sentrin-specific proteases (SENPs) using a Caspase-3 Selectivity assay. [Related pubchem assays (depositor defined):AID2540, AID2599, AID434973, AID489001]
T4 sequence (P42574 whole entry): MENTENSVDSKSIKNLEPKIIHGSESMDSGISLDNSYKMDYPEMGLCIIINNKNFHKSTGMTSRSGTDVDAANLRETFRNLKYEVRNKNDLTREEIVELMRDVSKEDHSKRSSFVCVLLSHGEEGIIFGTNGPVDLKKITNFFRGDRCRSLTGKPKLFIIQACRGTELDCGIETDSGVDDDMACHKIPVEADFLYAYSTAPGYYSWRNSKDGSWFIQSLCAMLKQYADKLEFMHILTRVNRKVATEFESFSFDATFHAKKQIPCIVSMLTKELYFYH

[5] = viability of uninfected HEp-2 cells – cell-based, HTS, cytotoxicity control for RSV inhibitor project, dose response (AID 2410); conditions: human respiratory syncytial virus
[6] = target: T5, Ubiquitin-conjugating enzyme E2 N (Homo sapiens, UniProt P61088);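 further: Dose-response confirmation in a TR-FRET assay detecting UBC13-driven polyubiquitin chain formation, inhibition measured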
T5 sequence (P61088 whole entry): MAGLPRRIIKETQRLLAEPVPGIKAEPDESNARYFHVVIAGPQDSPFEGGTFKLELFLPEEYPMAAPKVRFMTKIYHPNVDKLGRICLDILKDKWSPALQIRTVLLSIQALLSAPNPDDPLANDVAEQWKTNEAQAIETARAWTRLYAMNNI

[7] = target: T6, Apoptotic protease-activating factor 1 (Homo sapiens, UniProt O14727)
T6 sequence (O14727 whole entry): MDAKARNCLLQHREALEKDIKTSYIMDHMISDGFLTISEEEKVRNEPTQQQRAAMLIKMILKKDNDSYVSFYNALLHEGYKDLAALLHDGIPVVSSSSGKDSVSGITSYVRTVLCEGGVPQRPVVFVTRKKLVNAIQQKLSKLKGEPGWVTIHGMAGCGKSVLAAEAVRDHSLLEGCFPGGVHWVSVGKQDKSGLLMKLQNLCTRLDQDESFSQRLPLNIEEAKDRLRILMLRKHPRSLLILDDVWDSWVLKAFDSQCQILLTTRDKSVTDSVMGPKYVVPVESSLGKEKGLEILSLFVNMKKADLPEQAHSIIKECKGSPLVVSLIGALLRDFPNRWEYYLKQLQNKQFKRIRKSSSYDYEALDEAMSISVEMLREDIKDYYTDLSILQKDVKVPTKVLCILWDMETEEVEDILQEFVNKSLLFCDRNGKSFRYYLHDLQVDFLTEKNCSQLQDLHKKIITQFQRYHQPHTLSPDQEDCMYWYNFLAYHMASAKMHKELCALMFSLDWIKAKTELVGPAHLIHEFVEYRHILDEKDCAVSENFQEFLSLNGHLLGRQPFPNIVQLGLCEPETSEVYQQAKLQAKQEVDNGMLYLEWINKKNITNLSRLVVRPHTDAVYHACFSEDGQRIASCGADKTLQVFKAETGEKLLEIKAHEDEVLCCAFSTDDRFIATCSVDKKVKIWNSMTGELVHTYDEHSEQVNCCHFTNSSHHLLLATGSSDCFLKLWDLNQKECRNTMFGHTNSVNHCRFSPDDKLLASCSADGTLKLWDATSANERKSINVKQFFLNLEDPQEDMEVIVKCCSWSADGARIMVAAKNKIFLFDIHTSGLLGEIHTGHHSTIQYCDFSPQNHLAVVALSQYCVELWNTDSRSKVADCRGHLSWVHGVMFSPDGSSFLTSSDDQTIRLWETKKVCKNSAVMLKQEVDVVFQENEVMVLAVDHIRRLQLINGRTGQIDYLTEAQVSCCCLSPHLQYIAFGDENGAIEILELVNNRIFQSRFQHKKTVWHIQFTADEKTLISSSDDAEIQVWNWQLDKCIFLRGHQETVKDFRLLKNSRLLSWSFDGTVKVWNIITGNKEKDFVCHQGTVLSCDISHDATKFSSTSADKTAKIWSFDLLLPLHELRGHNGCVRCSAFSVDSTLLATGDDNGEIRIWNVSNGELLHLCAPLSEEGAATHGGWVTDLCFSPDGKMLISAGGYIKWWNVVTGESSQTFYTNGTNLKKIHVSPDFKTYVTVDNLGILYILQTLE

**Q.** With `Cc1ccc(C(=O)Nc2sc3c(c2C#N)CCCCCC3)o1` as the compound, how does the IC50 [1] read?
**A.** > 99 µM (inactive)

**Q.** What about the IC50 [2] of the same compound?
**A.** > 99 µM (inactive)

**Q.** What about the IC50 [3] of the same compound?
**A.** 39.1 µM (active)

**Q.** And the IC50 [4]?
**A.** > 99 µM (inactive)

**Q.** Which CC50 [5] does the source give for `COc1ccc(S(=O)(=O)N2CCN(c3ccc4nnc(-c5ccc(F)cc5)n4n3)CC2)cc1` here?
**A.** > 50 µM (active)

**Q.** And the IC50 [6]?
**A.** > 20 µM (inactive)

**Q.** What about the IC50 [7] of the same compound?
**A.** 19.2 µM (active)

**Q.** Which IC50 [1] does the source give for `O=C(c1ccc(Cl)s1)N(Cc1cccnc1)c1nc2c(F)cc(F)cc2s1` here?
**A.** > 99 µM (inactive)

**Q.** What about the IC50 [2] of the same compound?
**A.** > 99 µM (inactive)

**Q.** And the IC50 [3]?
**A.** > 99 µM (inactive)

**Q.** And the IC50 [4]?
**A.** > 99 µM (inactive)
